Assay results taken from article PMC11440591 (Journal of Medicinal Chemistry, 2024).
Where two headings read alike, the source gives them in different places.

Legend:
EBOV = conditions: cited from earlier work
VeroE6 cells = conditions: cited from earlier work
EBOV like particles = conditions: cited from earlier work
[1] = system: pseudotypes with the SUDV envelope (pSUDV); test: microbe, parasite or virus in culture; format: cell-based; conditions: Sudan ebolavirus, read-out: EC50 (pSUDV)
[2] = system: VSV-G-pseudotype virus (pVSV-G); test: microbe, parasite or virus in culture; format: cell-based; conditions: Vesicular stomatitis virus, read-out: %inh@10µM (pVSV-G)
[3] = molecular target: EBOV-GPcl/NPC1-domain C interaction (Zaire ebolavirus, UniProt Q05320); format: binding, EBOV; Homo sapiens
[4] = male, BALB/c, mouse, in vivo
in vivo [5] = conditions: male, BALB/c, mouse
in vitro [6] = conditions: chlorocebus sabaeus
hERG potassium channel [7] = molecular target: T1, hERG potassium channel (Homo sapiens, UniProt Q12809); test: in vitro
Nav1.5 = Nav1.5 (Homo sapiens, UniProt Q14524); test: in vitro
[8] = system: EBOV-GP-pseudotyped virus (pEBOV); test: microbe, parasite or virus in culture; conditions: Vesicular stomatitis virus, Vero C1008, 24 h, read-out: EC50 (pEBOV)
[9] = system: wild-type Zaire EBOV Mayinga 1976 strain (EBOV May); test: microbe, parasite or virus in culture; conditions: Zaire ebolavirus, Vero C1008, 72 h, read-out: EC50 (EBOV May)
in vivo [10] = conditions: both, C57BL/6, mouse, po
in vitro [11] = conditions: human, microsomes, pH 7.4
in vitro [12] = conditions: CD-1, mouse, microsomes, pH 7.4
hERG potassium channel [13] = molecular target: T1, hERG potassium channel; test: cell-based
[14] = system: EBOV-GP-pseudotyped virus (pEBOV)
[15] = system: wild-type Zaire EBOV Mayinga 1976 strain (EBOV May)

T1 sequence (Q12809 whole entry): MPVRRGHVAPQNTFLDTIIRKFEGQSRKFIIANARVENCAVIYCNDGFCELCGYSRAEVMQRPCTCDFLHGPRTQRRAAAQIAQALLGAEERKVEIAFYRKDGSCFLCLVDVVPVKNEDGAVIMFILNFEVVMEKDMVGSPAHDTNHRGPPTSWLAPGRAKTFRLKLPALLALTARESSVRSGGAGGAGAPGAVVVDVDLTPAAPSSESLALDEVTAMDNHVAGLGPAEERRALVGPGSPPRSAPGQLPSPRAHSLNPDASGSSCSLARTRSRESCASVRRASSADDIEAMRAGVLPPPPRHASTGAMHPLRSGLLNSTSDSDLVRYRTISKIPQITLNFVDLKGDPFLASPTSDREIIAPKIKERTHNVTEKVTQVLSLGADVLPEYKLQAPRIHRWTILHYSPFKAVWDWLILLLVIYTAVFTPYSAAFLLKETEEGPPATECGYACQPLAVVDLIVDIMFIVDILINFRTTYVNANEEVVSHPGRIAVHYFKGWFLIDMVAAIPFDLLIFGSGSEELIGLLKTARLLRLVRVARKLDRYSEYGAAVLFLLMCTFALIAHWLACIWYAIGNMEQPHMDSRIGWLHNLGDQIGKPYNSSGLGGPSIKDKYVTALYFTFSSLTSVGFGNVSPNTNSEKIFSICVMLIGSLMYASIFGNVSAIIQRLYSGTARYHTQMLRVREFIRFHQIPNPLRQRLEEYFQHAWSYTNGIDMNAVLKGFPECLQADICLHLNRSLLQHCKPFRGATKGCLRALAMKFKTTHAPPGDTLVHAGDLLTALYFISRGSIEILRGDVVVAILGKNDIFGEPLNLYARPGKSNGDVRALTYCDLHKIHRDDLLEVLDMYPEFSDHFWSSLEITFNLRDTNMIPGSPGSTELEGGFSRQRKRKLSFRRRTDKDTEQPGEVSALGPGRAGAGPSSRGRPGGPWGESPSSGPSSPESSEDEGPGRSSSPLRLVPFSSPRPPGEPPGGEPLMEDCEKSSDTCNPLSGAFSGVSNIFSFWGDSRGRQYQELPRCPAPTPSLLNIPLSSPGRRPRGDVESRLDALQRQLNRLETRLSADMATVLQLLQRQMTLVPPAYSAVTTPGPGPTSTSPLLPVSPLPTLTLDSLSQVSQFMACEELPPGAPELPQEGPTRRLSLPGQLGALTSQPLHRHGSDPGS
Sequence of Nav1.5 (Q14524 whole entry): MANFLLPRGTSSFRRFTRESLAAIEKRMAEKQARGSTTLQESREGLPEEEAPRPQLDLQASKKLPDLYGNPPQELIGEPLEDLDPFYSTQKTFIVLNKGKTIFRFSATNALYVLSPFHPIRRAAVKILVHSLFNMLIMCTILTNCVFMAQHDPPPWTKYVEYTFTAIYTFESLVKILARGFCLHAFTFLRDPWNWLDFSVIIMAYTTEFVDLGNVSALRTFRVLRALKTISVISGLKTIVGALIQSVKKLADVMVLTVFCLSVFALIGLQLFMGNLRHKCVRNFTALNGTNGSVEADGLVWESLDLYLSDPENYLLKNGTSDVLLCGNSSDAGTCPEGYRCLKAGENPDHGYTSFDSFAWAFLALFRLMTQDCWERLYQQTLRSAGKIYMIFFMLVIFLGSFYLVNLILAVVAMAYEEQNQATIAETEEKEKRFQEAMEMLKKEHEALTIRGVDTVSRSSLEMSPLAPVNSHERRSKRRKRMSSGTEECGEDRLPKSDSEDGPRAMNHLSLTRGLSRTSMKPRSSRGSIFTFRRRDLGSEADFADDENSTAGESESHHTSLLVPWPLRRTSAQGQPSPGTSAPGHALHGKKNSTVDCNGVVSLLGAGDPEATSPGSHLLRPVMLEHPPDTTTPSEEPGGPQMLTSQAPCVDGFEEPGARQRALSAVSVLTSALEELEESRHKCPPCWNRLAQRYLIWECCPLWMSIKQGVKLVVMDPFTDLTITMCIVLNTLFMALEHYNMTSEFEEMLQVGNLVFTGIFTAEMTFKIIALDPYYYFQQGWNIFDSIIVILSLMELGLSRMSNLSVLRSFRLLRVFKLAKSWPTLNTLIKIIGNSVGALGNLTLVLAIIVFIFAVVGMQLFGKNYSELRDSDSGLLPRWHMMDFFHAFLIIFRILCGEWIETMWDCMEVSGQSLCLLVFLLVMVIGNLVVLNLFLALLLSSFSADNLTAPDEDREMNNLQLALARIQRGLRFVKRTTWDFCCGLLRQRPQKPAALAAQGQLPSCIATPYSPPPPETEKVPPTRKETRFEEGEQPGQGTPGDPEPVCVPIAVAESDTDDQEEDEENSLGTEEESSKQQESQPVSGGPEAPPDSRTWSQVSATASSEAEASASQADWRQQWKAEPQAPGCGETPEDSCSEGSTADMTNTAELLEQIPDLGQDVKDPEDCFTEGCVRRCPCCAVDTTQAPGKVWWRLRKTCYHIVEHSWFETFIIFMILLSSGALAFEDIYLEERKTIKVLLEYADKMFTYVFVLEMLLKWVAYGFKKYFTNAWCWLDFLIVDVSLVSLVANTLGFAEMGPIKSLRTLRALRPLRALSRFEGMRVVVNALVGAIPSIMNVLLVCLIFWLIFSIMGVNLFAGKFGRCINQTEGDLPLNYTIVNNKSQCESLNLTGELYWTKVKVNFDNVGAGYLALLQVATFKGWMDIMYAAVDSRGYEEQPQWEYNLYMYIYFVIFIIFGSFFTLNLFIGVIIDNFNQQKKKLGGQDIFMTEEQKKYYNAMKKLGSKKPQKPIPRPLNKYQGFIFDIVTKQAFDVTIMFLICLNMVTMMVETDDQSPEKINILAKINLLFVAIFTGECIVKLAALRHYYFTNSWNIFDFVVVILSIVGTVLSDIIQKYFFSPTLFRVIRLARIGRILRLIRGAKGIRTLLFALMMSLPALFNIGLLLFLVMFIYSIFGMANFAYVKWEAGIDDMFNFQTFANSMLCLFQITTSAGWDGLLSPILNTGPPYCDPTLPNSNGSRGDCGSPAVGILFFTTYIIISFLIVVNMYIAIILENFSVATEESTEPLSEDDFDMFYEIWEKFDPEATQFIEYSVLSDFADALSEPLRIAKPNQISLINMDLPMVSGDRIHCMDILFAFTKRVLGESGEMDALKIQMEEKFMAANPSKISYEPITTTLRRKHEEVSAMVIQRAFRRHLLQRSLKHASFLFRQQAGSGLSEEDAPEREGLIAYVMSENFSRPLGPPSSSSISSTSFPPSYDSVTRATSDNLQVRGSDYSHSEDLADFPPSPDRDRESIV
Sequence of EBOV-GPcl/NPC1-domain C interaction (Q05320 33-190 limits assumed): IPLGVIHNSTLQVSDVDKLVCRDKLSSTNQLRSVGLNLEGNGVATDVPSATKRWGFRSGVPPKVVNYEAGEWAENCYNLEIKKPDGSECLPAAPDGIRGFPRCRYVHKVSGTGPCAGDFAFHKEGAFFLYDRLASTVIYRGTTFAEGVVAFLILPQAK
Sequence of EBOV-GPcl/NPC1-domain C interaction (Q05320 502-676 limits assumed): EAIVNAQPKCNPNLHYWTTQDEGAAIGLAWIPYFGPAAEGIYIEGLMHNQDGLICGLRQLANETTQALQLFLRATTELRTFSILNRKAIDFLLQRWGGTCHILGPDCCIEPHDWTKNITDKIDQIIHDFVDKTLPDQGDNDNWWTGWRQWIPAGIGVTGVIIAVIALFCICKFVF

Question: With `COC(=O)c1ccc(COc2ccccc2CN2CCN(C(=O)CNC(=O)CC34CC5CC(CC(C5)C3)C4)CC2)cc1` [3.47] as the compound, how does the EC50 (EBOV) read?
Answer: 0.16 µM

Question: What does the source list for `NC(=O)c1nc(F)cnc1O` [Favipiravir, favipiravir]?
Answer: IC50 (EBOV): 67 µM; CC50 (VeroE6 cells): > 1000 µM

Question: For `CN(C)CCCN1c2ccccc2CCc2ccccc21` [Imipramine, imipramine], which IC50 (EBOV like particles) is on record?
Answer: 13.2 µM

Question: For `CN(C)CCOc1ccc(/C(=C(/CCCl)c2ccccc2)c2ccccc2)cc1` [Toremifene, toremifene], which CC50 (VeroE6 cells) is on record?
Answer: 16 µM

Question: What does the source list for `O=C(Nc1ccccc1)c1ccc(-c2ccccc2OC2CCNCC2)s1` [compound 1, N-Phenyl-5-(2-(piperidin-4-yloxy)phenyl)thiophene-2-carboxamide]?
Answer: EC50 [1]: 2.64 µM; inhibition at 10 µM [2]: 0.66%; inhibitory effect on EBOV-GPcl/NPC1-domain C interaction (in words) [3]: comparable effect than the control imipramine; brain concentration ([4]; ip, 10 mg/kg): 330 nM; estimated plasma concentration ([4]; ip, 10 mg/kg): 0.32 µM; brain concentration ([4]; po, 50 mg/kg): 810 nM; estimated plasma concentration ([4]; po, 50 mg/kg): 0.29 µM; half-life at 24 h (in vivo [5]; ip, 10 mg/kg): 1.96 h; Cmax at 24 h (in vivo [5]; ip, 10 mg/kg): 122 ng/mL; half-life at 24 h (in vivo [5]; po, 50 mg/kg): 5.6 h; CC50 at 24 h (in vitro [6]): 34 µM; IC50 (hERG potassium channel [7]): 10.6 µM; IC50 (Nav1.5): 20.4 µM; EC50 [8]: 5.91 µM; EC50 [9]: 1.5 µM

Question: Which EC50 [1] does the source give for `O=C(Nc1ccccc1)c1ccc(-c2cccc(OC3CCNCC3)c2)s1` [compound 53, N-Phenyl-5-(3-(piperidin-4-yloxy)phenyl)thiophene-2-carboxamide] here?
Answer: 3.05 µM

Question: What about the inhibition at 10 µM [2] of the same compound?
Answer: 7%

Question: And the CC50 at 24 h (in vitro [6])?
Answer: 33.9 µM

Question: What about the EC50 [8] of the same compound?
Answer: 7.19 µM

Question: And the EC50 [9]?
Answer: 0.3 µM

Question: Which EC50 [1] does the source give for `O=C(Nc1ccccc1)c1ccc(-c2ccc(OC3CCNCC3)cc2)s1` [compound 57, N-Phenyl-5-(4-(piperidin-4-yloxy)phenyl)thiophene-2-carboxamide] here?
Answer: 1.68 µM

Question: And the inhibition at 10 µM [2]?
Answer: 24%

Question: And the “inhibitory effect on EBOV-GPcl/NPC1-domain C interaction (in words)” value [3]?
Answer: comparable effect than the control imipramine

Question: What about the brain concentration ([4]; ip, 10 mg/kg) of the same compound?
Answer: 4430 nM

Question: And the estimated plasma concentration ([4]; ip, 10 mg/kg)?
Answer: 2.74 µM

Question: And the brain concentration ([4]; po, 50 mg/kg)?
Answer: 14800 nM

Question: What about the estimated plasma concentration ([4]; po, 50 mg/kg) of the same compound?
Answer: 2.04 µM

Question: What about the half-life at 24 h (in vivo [5]; ip, 10 mg/kg) of the same compound?
Answer: 5.18 h

Question: And the Cmax (in vivo [5]; ip, 10 mg/kg)?
Answer: 1680 ng/mL

Question: What about the Cmax at 24 h (in vivo [5]; ip, 10 mg/kg) of the same compound?
Answer: 1040 ng/mL

Question: And the Tmax (in vivo [5]; ip, 10 mg/kg)?
Answer: 4 h

Question: What about the Tmax at 24 h (in vivo [5]; ip, 10 mg/kg) of the same compound?
Answer: 0.5 h

Question: What about the half-life at 24 h (in vivo [5]; po, 50 mg/kg) of the same compound?
Answer: 8.76 h

Question: And the Cmax (in vivo [5]; po, 50 mg/kg)?
Answer: 773 ng/mL

Question: What about the Cmax at 24 h (in vivo [5]; po, 50 mg/kg) of the same compound?
Answer: 5600 ng/mL

Question: And the Tmax (in vivo [5]; po, 50 mg/kg)?
Answer: 4 h

Question: What about the Tmax at 24 h (in vivo [5]; po, 50 mg/kg) of the same compound?
Answer: 2 h

Question: And the MTD (in vivo [10])?
Answer: 100 mg/kg

Question: What about the CC50 at 24 h (in vitro [6]) of the same compound?
Answer: 11 µM

Question: And the half-life at 1 h, 10 µM (in vitro [11])?
Answer: 2.17 ± 0.15 h

Question: And the half-life at 1 h, 10 µM (in vitro [12])?
Answer: 0.483 ± 0.0833 h

Question: What about the IC50 (hERG potassium channel [7]) of the same compound?
Answer: 48.9 µM

Question: And the IC50 (Nav1.5)?
Answer: > 50 µM

Question: What about the IC50 (hERG potassium channel [13]) of the same compound?
Answer: ~50 µM

Question: And the EC50 [8]?
Answer: 8.16 µM

Question: What about the EC50 [9] of the same compound?
Answer: 0.19 µM

Question: For `O=C(NCCC1CCN(Cc2ccccc2)CC1)c1cnc(-c2ccc(OC3CCNCC3)cc2)s1` [compound 79, N-(2-(1-Benzylpiperidin-4-yl)ethyl)-2-(4-(piperidin-4-yloxy)phenyl)thiazole-5-carboxamide], which inhibition at 10 µM [2] is on record?
Answer: 39%

Question: And the “SI (CC50/EC50)” value [14]?
Answer: 12

Question: And the “SI (CC50/EC50)” value [15]?
Answer: 12.8

Question: And the CC50 (in vitro [6])?
Answer: > 100 µM

Question: What about the EC50 [8] of the same compound?
Answer: 8.3 µM

Question: What about the EC50 [9] of the same compound?
Answer: 7.83 µM

Question: Which results are given for `O=C(NCCc1ccccc1)c1cnc(-c2ccccc2OC2CCNCC2)s1` [compound 97, N-Phenethyl-2-(2-(piperidin-4-yloxy)phenyl)thiazole-5-carboxamide]?
Answer: inhibition at 10 µM [2]: 18%; SI (CC50/EC50) [14]: 14.5; SI (CC50/EC50) [15]: 5.8; CC50 at 24 h (in vitro [6]): 91 µM; EC50 [8]: 6.27 µM; EC50 [9]: 15.7 µM

Question: For `O=C(Nc1ccc(Cl)cc1)c1ccc(-c2ccccc2OC2CCNCC2)o1` [compound 99, N-(4-Chlorophenyl)-5-(2-(piperidin-4-yloxy)phenyl)furan-2-carboxamide], which inhibition at 10 µM [2] is on record?
Answer: 10%

Question: What about the “SI (CC50/EC50)” value [14] of the same compound?
Answer: 3.1

Question: What about the “SI (CC50/EC50)” value [15] of the same compound?
Answer: 7.9

Question: What about the CC50 at 24 h (in vitro [6]) of the same compound?
Answer: 20 µM

Question: And the EC50 [8]?
Answer: 6.35 µM

Question: And the EC50 [9]?
Answer: 2.53 µM

Question: Which inhibition at 10 µM [2] does the source give for `O=C(NCCC1CCN(Cc2ccccc2)CC1)c1ccc(-c2ccccc2OC2CCNCC2)o1` [compound 101, N-(2-(1-Benzylpiperidin-4-yl)ethyl)-5-(2-(piperidin-4-yloxy)phenyl)furan-2-carboxamide] here?
Answer: 39%

Question: What about the “SI (CC50/EC50)” value [14] of the same compound?
Answer: 18.7

Question: What about the “SI (CC50/EC50)” value [15] of the same compound?
Answer: 9.5

Question: And the CC50 at 24 h (in vitro [6])?
Answer: 90 µM

Question: And the EC50 [8]?
Answer: 4.81 µM

Question: What about the EC50 [9] of the same compound?
Answer: 9.5 µM

Question: With `O=C(NCCc1ccccc1)c1ccc(-c2ccccc2OC2CCNCC2)o1` [compound 102, N-Phenethyl-5-(2-(piperidin-4-yloxy)phenyl)furan-2-carboxamide] as the compound, how does the inhibition at 10 µM [2] read?
Answer: -23%

Question: And the “SI (CC50/EC50)” value [14]?
Answer: 12.77

Question: What about the “SI (CC50/EC50)” value [15] of the same compound?
Answer: 4.5

Question: And the CC50 at 24 h (in vitro [6])?
Answer: 27.6 µM

Question: What about the EC50 [8] of the same compound?
Answer: 2.16 µM

Question: What about the EC50 [9] of the same compound?
Answer: 6.19 µM

Question: With `O=C(Nc1ccccc1)c1ccc(-c2cccc(OC3CCNCC3)c2)o1` [compound 103, N-Phenyl-5-(3-(piperidin-4-yloxy)phenyl)furan-2-carboxamide] as the compound, how does the inhibition at 10 µM [2] read?
Answer: -18%

Question: And the “SI (CC50/EC50)” value [14]?
Answer: 1.7

Question: And the “SI (CC50/EC50)” value [15]?
Answer: 1.5

Question: What about the CC50 at 24 h (in vitro [6]) of the same compound?
Answer: 14.1 µM

Question: What about the EC50 [8] of the same compound?
Answer: 8.27 µM

Question: What about the EC50 [9] of the same compound?
Answer: 9.26 µM
